Several values for one entry are separate records, joined by “and”; a condition that tells them apart may be missing. Equal values may be shown once.
How the values were obtained:
AF6 domain 1 = target: T1, AF6 domain 1 (Homo sapiens, UniProt P55196); experiment: G assay PDZ-PL binding; conditions: peptide 10 uM, protein 5
T1 construct: made in house; host or cells: E. coli (DH5alpha or BL-21)

PDZK1 domain 3 = target: T2, PDZK1 domain 3 (Homo sapiens, UniProt Q5T2W1); experiment: G assay PDZ-PL binding; conditions: peptide 10 uM, protein 5
T2 construct: made in house; host or cells: E. coli (DH5alpha, BL21 or JM109)
Description: (§1) (1) A PDZ-domain polypeptide is bound to a surface, e.g. a protein binding surface. In a preferred embodiment, a GST/PDZ fusion protein containing one or more PDZ domains is bound to a polystyrene 96-well plate. […] In one embodiment, the GST/PDZ fusion protein is bound via an anti-GST antibody that is coated onto the 96-well plate. Adequate binding to the plate can be achieved when: • a. 100 uL per well of 5 ug/mL goat anti-GST polyclonal antibody (Pierce) in PBS is added to a polystyrene 96-well plate (e.g., Num Polysorb) at 4° C. for 12 hours. • b. The plate is blocked by addition of 200 uL per well of PBS/BSA for 2 hours at 4° C. • c. The plate is washed 3 times with PBS. • d. 50 uL per well of 5 ug/mL GST/PDZ fusion protein) or, as a negative control, GST polypeptide alone (i.e. not a fusion protein) in PBS/BSA is added to the plate for 2 hours at 4° C. • e. The plate is again washed 3 times with PBS.
(§2) (2) Biotinylated PL peptides are allowed to react with the surface by addition of 50 uL per well of 20 uM solution of the biotinylated peptide in PBS/BSA for 10 minutes at 4° C., followed by an additional 20 minute incubation at 25° C.
(§3) (3) The binding of the biotinylated peptide to the GST/PDZ fusion protein surface can be detected using a variety of methods and detectors known to one of skill in the art. In one embodiment, 100 uL per well of 0.5 ug/mL streptavidin-horse radish peroxidase (HRP) conjugate dissolved in BSA/PBS is added and allowed to react for 20 minutes at 4° C. The plate is then washed 5 times with 50 mM Tris pH 8.0 containing 0.2% Tween 20, and developed by addition of 100 uL per well of HRP-substrate solution (TMB, Dako) for 20 minutes at room temperature (RT). The reaction of the HRP and its substrate is terminated by addition of 100 uL per well of 1M sulfuric acid, and the absorbance of each well of the plate is read at 450 nm.
(§4) (4) Specific binding of a PL peptide and a PDZ domain polypeptide is determined by comparing the signal from the well(s) in which the PL peptide and PDZ domain polypeptide are combined, with the background signal(s). The background signal is the signal found in the negative control(s). Typically a specific or selective reaction will be at least twice background signal, more typically more than 5 times background, and most typically 10 or more times the background signal. In addition, a statistically significant reaction will involve multiple measurements of the reaction with the signal and the background differing by at least two standard errors, more typically four standard errors, and most typically six or more standard errors. Correspondingly, a statistical test (e.g. a T-test) comparing repeated measurements of the signal with-repeated measurements of the background will result in a p-value<0.05, more typically a p-value<0.01, and most typically a p-value<0.001 or less. As noted, in an embodiment of the “G” assay, the signal from binding of a given PL peptide to immobilized (surface bound) GST polypeptide alone is one suitable negative control (sometimes referred to as “B 1”). Because all measurement are done in multiples (i.e. at least duplicate) the arithmetic mean (or, equivalently, average.) of several measurements is used in determining the binding, and the standard error of the mean is used in determining the probable error in the measurement of the binding. The standard error of the mean of N measurements equals the square root of the following: the sum of the squares of the difference between each measurement and the mean, divided by the product of (N) and (N−1). Thus, in one embodiment, specific binding of the PDZ protein to the platebound peptide is determined by comparing the mean signal (“mean S”) and standard error of the signal (“SE”) for a particular PL-PDZ combination with the mean B1. […]

KIAA0382 domain 1 = target: T3, KIAA0382 domain 1 (Homo sapiens, UniProt Q9NZN5); experiment: G assay PDZ-PL binding; conditions: peptide 10 uM, protein 5
T3 construct: made in house; host or cells: E. coli (DH5alpha, BL21 or JM109), vector pGEX-3X
Description: as §1, §2, §3, §4

[1] = target: T4, Syntrophin beta 2 domain 1 (Homo sapiens, UniProt Q13425); experiment: G assay PDZ-PL binding; conditions: peptide 10 uM, protein 5
T4 construct: made in house; host or cells: E. coli (DH5alpha, BL21 or JM109)
Description: as §1, §2, §3, §4

INADL domain 8 = target: T5, INADL domain 8 (Homo sapiens, UniProt Q8NI35); experiment: G assay PDZ-PL binding; conditions: peptide 10 uM, protein 5
T5 construct: made in house; host or cells: E. coli (DH5alpha or BL-21)
Description: as §1, §2, §3, §4

SAST2 = conditions: E6 peptide titrated against constant GST-PDZ; SAST2 (1)
Description: (§5) (1) A GST/PDZ fusion protein, as well as GST alone as a negative control, are bound to a surface (e.g., a 96-well plate) and the surface blocked and washed as described supra for the “G” assay.
(§6) (2) 50 uL per well of a solution of biotinylated PL peptide (e.g. as shown in TABLE 2) is added to the surface in increasing concentrations in PBS/BSA (e.g. at 0.1 uM, 0.33 uM, 1 uM, 3.3 uM, 10 uM, 33 uM, and 100 uM). In one embodiment, the PL peptide is allowed to react with the bound GST/PDZ fusion protein (as well as the GST alone negative control) for 10 minutes at 4° C. followed by 20 minutes at 25° C. The plate is washed 3 times with ice cold PBS to remove unbound labeled peptide.
(§7) (3) The binding of the PL peptide to the immobilized PDZ-domain polypeptide is detected as described supra for the “G” assay.
(§8) (4) For each concentration of peptide, the net binding signal is determined by subtracting the binding of the peptide to GST alone from the binding of the peptide to the GST/PDZ fusion protein. The net binding signal is then plotted as a function of ligand concentration and the plot is fit (e.g. by using the Kaleidagraph software package curve fitting algorithm; Synergy Software) to the following equation, where “Signal[ligand]” is the net binding signal at PL peptide concentration “[ligand],” “Kd” is the apparent affinity of the binding event, and “Saturation Binding” is a constant determined by the curve fitting algorithm to optimize the fit to the experimental data: […]

DLG2 (PDZ3) = DLG2 (PDZ3) (Homo sapiens, UniProt Q15700); conditions: E6 peptide titrated against constant GST-PDZ; DLG2 (3)
Description: as §5, §6, §7, §8

SIP1 (PDZ1) = SIP1 (PDZ1) (Homo sapiens, UniProt Q15599); conditions: E6 peptide titrated against constant GST-PDZ; SIP1 (1)
Description: as §5, §6, §7, §8

T3 sequence (Q9NZN5 with tags, fused parts or gaps): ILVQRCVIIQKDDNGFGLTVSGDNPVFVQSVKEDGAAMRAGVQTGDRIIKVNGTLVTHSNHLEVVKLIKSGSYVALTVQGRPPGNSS
T4 sequence (Q13425 with tags, fused parts or gaps): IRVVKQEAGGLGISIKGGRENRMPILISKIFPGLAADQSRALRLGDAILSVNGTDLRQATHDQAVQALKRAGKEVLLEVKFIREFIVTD
T1 sequence (P55196 1001-1093): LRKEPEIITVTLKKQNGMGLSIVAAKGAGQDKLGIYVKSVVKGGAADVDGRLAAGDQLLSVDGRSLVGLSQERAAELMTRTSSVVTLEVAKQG
T5 sequence (Q8NI35 1425-1517): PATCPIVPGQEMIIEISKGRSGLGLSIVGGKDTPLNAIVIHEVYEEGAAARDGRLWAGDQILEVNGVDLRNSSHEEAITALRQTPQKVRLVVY
Chain of SIP1 (PDZ1) (Q15599 with tags, fused parts or gaps): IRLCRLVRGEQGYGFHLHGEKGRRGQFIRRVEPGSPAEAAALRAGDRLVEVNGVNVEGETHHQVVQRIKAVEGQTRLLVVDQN

20 mer peptide corresponding to the C-terminus of HPV16 E6 (PDZ ligand), biotinylated in binding assays; ends SSRTRRETQL (SEQ ID NO: 13) [HPV E6 #16]
Ave OD (AF6 domain 1; A450 nm): 0.444
OD S/N (AF6 domain 1; vs GST only well): 1.80
Ave OD (PDZK1 domain 3; A450 nm): 0.5
OD S/N (PDZK1 domain 3; vs GST only well): 1.92
Ave OD (KIAA0382 domain 1; A450 nm): 0.712 and 0.6995
OD S/N (KIAA0382 domain 1; vs GST only well): 3.61 and 2.66
Ave OD ([1]; A450 nm): 1.1585 and 1.0325
OD S/N ([1]; vs GST only well): 5.81 and 5.35
Ave OD (INADL domain 8; A450 nm): 0.3875
OD S/N (INADL domain 8; vs GST only well): 1.58
EC50 (SAST2): 1.2 µM
EC50 (DLG2 (PDZ3)): 1.6 µM
EC50 (SIP1 (PDZ1)): 7.5 µM
